According to US8455505B2, “Pyrrolopyrimidinedione and its therapeutic use” (Chiesi Farmaceutici S.p.A., priority 2009, dated 2013):

How the values were obtained:
human leukocyte elastase = molecular target: T1, human leukocyte elastase (Homo sapiens, UniProt P08246); assay: Enzyme inhibition assay using fluorescent peptide substrate; type: biochemical; conditions: MeO-Suc-Ala-Ala-Pro-ValAMC substrate 100 μM, free base, means of two independent experiments
T1 construct: purchased Sigma E8140
T1 sequence (P08246 30-247 limits assumed): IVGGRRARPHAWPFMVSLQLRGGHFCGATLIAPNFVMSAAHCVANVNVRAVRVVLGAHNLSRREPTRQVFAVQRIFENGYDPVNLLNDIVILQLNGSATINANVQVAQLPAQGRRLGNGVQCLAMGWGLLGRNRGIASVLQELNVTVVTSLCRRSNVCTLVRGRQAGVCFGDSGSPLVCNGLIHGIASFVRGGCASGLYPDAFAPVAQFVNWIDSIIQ
Procedure: Using Fluorescent Peptide Substrate
Assays were performed in 96-well plates at a total assay volume of 100 μl. The final concentration of the enzyme (human leukocyte elastase, Sigma E8140) was 0.00036 units/well. A peptide substrate (MeO-Suc-Ala-Ala-Pro-ValAMC (SEQ ID NO: 1), Calbiochem #324745) was used, at the final concentration of 100 μM. The final concentration of DMSO was 1% in the assay buffer (0.05M Tris.HCl, pH 7.5, 0.1M NaCl; 0.1M CaCl2; 0.0005% brij-35).
The enzymatic reaction was started by adding the enzyme. The enzymatic reaction was performed at RT and after 30 mins stopped by adding 50 μl soybean trypsin inhibitor (Sigma T-9003) at a final concentration of 50 μg/well. Fluorescence was read on the FLEXstation (Molecular Devices) using 380 nm excitation and 460 nm emission filters. […] The results are means of two independent experiments, each performed in duplicate.
The results are means of two independent experiments, each performed in duplicate.

[1] = system: HNE Induced Lung Haemorrhage in the Rat; assay: HNE induced lung haemorrhage in the rat; type: in vivo; conditions: 100 μg/kg i.t., 6 hours prior to HNE, free base, statistically significant
Description: HNE Induced Lung Haemorrhage in the Rat
Instillation of human neutrophil elastase (HNE) into rat lung causes acute lung damage. The extent of this injury can be assessed by measuring lung haemorrhage.
Male Sprague Dawley rats (175-220 g) were obtained from Harlan UK Ltd., full barrier-bred and certified free from specified micro-organisms on receipt. Animals were weighed and randomly assigned to treatment groups (7-12 animals to per group).
The vehicle used was 1% DMSO/Saline. Inhibitors were dissolved in 1% DMSO before the addition of 0.9% saline.
Animals in each study used to determine the efficacy of the elastase inhibitors delivered locally to the lung by a variety of routes. […]
Once defrosted 100 μl of each lysed cell suspension was placed into a separate well of a 96 well flat bottomed plate. […] The OD of the contents of each well was measured at 415 nm using a spectramax 250 (Molecular devices). […]
The amount of blood in each experimental sample was calculated by comparison to the standard curve. Data were then analysed as below: • 1) The mean OD for duplicates was calculated • 2) The value for the blank was subtracted from the value for all other samples • 3) Data were assessed to evaluate the normality of distribution.

[2] = PK assay: half life in the lung after intra-tracheal administration; type: in vivo; conditions: rat, other: intra-tracheal, 10 ug/kg; male Sprague-Dawley rats, single intra-tracheal dose 10 μg/Kg, lung homogenate; free base; read-out: terminal lung t1/2 (converted)
Procedure: Comparison of the Half Lives in the Lung of the Compound of the Invention and the Compound of Example 18 of WO2007/129060
Test material was formulated at 20 μg/mL in 0.2% Tween 80 in saline. Solutions were sonicated and warmed in a water bath at 40° C. prior to dosing. Male Sprague-Dawley rats received a single intra-tracheal administration of the test material via a Penn-Century dosing needle at the nominal dose level of 10 μg/Kg. After dosing five rats from each group were terminally anaesthetized with sodium pentobarbitone at 1, 2, 4, 8, 24, 72 and 96 hours for compound (IA) (free base) and 1, 4, 8, 24, 72, 96, 168, 264 and 336 for compound (II) (free base) post dose. Blood was sampled from the tail vein, following which the chest was opened, the animal exanguinated by perfusion and the lungs removed and snap frozen. After collection the blood samples were centrifuged (10000×g, 2 min at 4° C.). Plasma was removed and both stored frozen at −20° C. Rat lungs were homogenised in water (on ice) to give a ratio of 1 part lung:2 parts water (w/v). A 100 μL aliquot of each homogenate was extracted by addition of 200 μL acetonitrile containing an analytical internal standard. […]
Test material was analysed on a triple quadrupole mass spectrometer (AB Sciex API 3000) fitted with LC pump and autosampler (Reliance). Test material was detected in positive ion mode Turbo Ion Spray. […]

| IC50 (human leukocyte elastase) [nM] | half-life [2] [h] | SMILES | reduction in haemorrhage relative to control [1] [%] |
| --- | --- | --- | --- |
| 8.4 | 37 | N#Cc1ccc([C@H]2NC(=O)N(c3cccc(C(F)(F)F)c3)C3=C2C(=O)N(CCCNCCCN2CC4=C(C2=O)[C@@H](c2ccc(C#N)nc2)NC(=O)N4c2cccc(C(F)(F)F)c2)C3)cn1 [Compound (IA)] | 95 |
| 2.1 | 94 | N#Cc1ccc([C@H]2NC(=O)N(c3cccc(C(F)(F)F)c3)C3=C2C(=O)N(CCCNCCCN2CC4=C(C2=O)[C@@H](c2ccc(C#N)cc2)NC(=O)N4c2cccc(C(F)(F)F)c2)C3)cc1 [Compound (II)] | 88 |
